From article PMC6211316, “Synthesis and biological evaluation of 3-arylcoumarin derivatives as potential anti-diabetic agents” (Journal of Enzyme Inhibition and Medicinal Chemistry, 2018)

System: not listed separately
Assay: DPPH free radical scavenging
Conditions: mean ± SD (n = 3)
Protocol: The effect of target compounds and vitamin C to scavenge the DPPH free radical was evaluated with the method described by Villano et al.[43] with slight modifications.
Two millilitres of different concentrations of the sample solution was added to 2.0 ml of DPPH solution (0.04 mg/mL), shaken and allowed to react at room temperature for 30 min. The absorbance value was measured at 517 nm with an ultraviolet-visible spectrophotometer. The blank reference cuvette contained absolute ethanol. All measurements were performed in triplicate. IC50 values were calculated. The percentage of DPPH radical scavenging rate of the target compound is calculated as follows: DPPH free radical scavenging effect (%)=[A0−(A1−A2)]/A0×100% where A0 is the absorbance of 2.0 ml DPPH solution +2.0 ml absolute ethanol; A1 is the absorbance of 2.0 ml DPPH solution +2.0 ml 3-arylcoumarins solution or standard; A2 is the absorbance of 2.0 ml 3-arylcoumarins solution or standard +2.0 ml absolute ethanol.
O=c1oc2c(O)cccc2cc1-c1ccc(Br)cc1 [Compound 45, 8-Hydroxy-3-(4-brominephenyl)-coumarin] gave an IC50 of 488 ± 95 µM. O=c1oc2c(O)c(O)ccc2cc1-c1ccc(Br)cc1 [Compound 47, 7,8-Dihydroxy-3-(4-brominephenyl)-coumarin] showed an IC50 of 2.37 ± 0.06 µM. With O=c1oc2cc(O)ccc2cc1-c1ccc(O)cc1 [Compound 12, 7-Hydroxy-3-(4-hydroxyphenyl)-coumarin] the IC50 was 756 ± 8.31 µM. Compound O=c1oc2cc(O)cc(O)c2cc1-c1ccc(Br)cc1 [Compound 46, 5,7-Dihydroxy-3-(4-brominephenyl)-coumarin] has an IC50 of over 1000 µM.

System: not listed separately
Assay: hydroxyl radical scavenging
Conditions: mean ± SD (n = 3), read-out: OH IC50 Value
Protocol: The ability of the target compounds and vitamin C to scavenge the hydroxyl radical was evaluated with method described by Ismaili et al.[29] with slight modifications. In test tube, 1.0 ml H2O2 solution (0.03%), 1.0 ml FeSO4 solution (2 mmol.L^−1), 1.0 ml salicylic acid solution (10 mmol.L^−1) and 1.0 ml of 3-arylcoumarins and standard water solution with different concentration (0.4–2.0 mg/mL) were mixed. Finally, 1.0 ml H2O2 solution (0.03%) was added to this mixture to start the reaction. Solutions were kept at 37 °C. After 30 min, the absorbance was measured at 510 nm against the reagent blank, where the distilled water was substituted for the H2O2 solution. The percentage of OH scavenging by target compounds and vitamin C was calculated the following equation: OH scavenging effect (%)=[A0−(A1−A2)]/A0×100% where A0 is the absorbance of 1.0 ml distilled water +1.0 ml H2O2 + 1.0 ml FeSO4 + 1.0 ml salicylic acid +1.0 ml H2O2; A1 is the absorbance of 1.0 ml 3-arylcoumarins or standard +1.0 ml H2O2 + 1.0 ml FeSO4 + 1.0 ml salicylic acid +1.0 ml H2O2; A2 is the absorbance of 1.0 ml 3-arylcoumarins or standard +1.0 ml H2O2 + 1.0 ml FeSO4 + 1.0 ml absolute absolute ethanol +1.0 ml H2O2.
Work on O=c1oc2c(O)cccc2cc1-c1ccc(Br)cc1 [Compound 45, 8-Hydroxy-3-(4-brominephenyl)-coumarin] yielded an IC50 of 596 ± 28.8 µM. Work on O=c1oc2c(O)c(O)ccc2cc1-c1ccc(Br)cc1 [Compound 47, 7,8-Dihydroxy-3-(4-brominephenyl)-coumarin] yielded an IC50 of 688 ± 49.7 µM. Work on O=c1oc2cc(O)ccc2cc1-c1ccc(O)cc1 [Compound 12, 7-Hydroxy-3-(4-hydroxyphenyl)-coumarin] yielded an IC50 of over 1000 µM. O=c1oc2cc(O)cc(O)c2cc1-c1ccc(Br)cc1 [Compound 46, 5,7-Dihydroxy-3-(4-brominephenyl)-coumarin] gave an IC50 of over 1000 µM.

Target: T1, α-Glucosidase (Saccharomyces cerevisiae, UniProt P53341)
T1 construct: purchased Sigma Aldrich G0660-750UN
T1 sequence (P53341 whole entry): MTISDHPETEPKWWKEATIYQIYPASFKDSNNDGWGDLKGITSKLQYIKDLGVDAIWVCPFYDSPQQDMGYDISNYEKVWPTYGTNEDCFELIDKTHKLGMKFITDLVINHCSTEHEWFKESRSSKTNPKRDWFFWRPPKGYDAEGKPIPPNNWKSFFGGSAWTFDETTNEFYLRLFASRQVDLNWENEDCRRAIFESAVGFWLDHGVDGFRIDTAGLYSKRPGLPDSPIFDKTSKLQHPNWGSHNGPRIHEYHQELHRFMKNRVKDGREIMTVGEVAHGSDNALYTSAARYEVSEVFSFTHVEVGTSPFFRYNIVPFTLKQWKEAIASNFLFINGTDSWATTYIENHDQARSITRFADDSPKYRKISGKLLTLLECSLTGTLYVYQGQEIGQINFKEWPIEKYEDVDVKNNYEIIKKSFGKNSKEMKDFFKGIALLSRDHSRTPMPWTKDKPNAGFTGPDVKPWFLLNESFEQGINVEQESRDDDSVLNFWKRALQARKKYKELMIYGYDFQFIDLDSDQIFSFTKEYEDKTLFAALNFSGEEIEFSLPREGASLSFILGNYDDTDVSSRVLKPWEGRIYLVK
Assay: biochemical
Format: biochemical
Conditions: mean ± SD (n = 3); read-out: α-Glucosidase inhibitory activity IC50 Value
Protocol: α-Glucosidase (G0660-750UN, Sigma Aldrich) and 4-Nitrophenyl α-D-glucopyranoside (PNPG, Macklin) were dissolved in phosphate buffer (pH 6.8, 100 mM), and the test compounds were dissolved in DMSO solution. The experiment was divided into blank group, control group, sample blank group, and sample group. The reagents were loaded in 96-well plates at the dose of the table (Table 8). The solution was bathed in 37 °C water for 10 min, and then enzyme solution was added. After reaction at 37 °C for 20 min, 70 μL Na2CO3 solution ([…]) was added to stop the reaction. All experiments were run in triplicate. […] Since PNPG can produce glucose and p-Nitrophenol (PNP) under the action of α-glucosidase, PNP has the greatest absorption at 405 nm. The absorbance was determined by the microplate reader, and the inhibition rate of α-glucosidase and the IC50 value of each sample were calculated according to the formula. Inhibition rate %={[(AC−AB)−(AS−ASB)]/(AC−AB)}×100% where AC is the absorbance of control group; AB is the absorbance of blank group; AS is the absorbance of sample group; ASB is the absorbance of sample blank group.
For O=c1oc2c(O)cccc2cc1-c1ccc(Br)cc1 [Compound 45, 8-Hydroxy-3-(4-brominephenyl)-coumarin], the IC50 was over 1000 µM. With O=c1oc2c(O)c(O)ccc2cc1-c1ccc(Br)cc1 [Compound 47, 7,8-Dihydroxy-3-(4-brominephenyl)-coumarin] the IC50 was 35.7 ± 0.48 µM. In the case of O=c1oc2cc(O)ccc2cc1-c1ccc(O)cc1 [Compound 12, 7-Hydroxy-3-(4-hydroxyphenyl)-coumarin], the IC50 is reported as 19.9 ± 3.39 µM. O=c1oc2cc(O)cc(O)c2cc1-c1ccc(Br)cc1 [Compound 46, 5,7-Dihydroxy-3-(4-brominephenyl)-coumarin] showed an IC50 of over 1000 µM.

System: AGEs formation
Assay: In vitro inhibitory activity of AGEs formation (bovine serum albumin/glucose)
Format: biochemical
Conditions: mean ± SD (n = 3)
Protocol: To prepare the AGEs reaction solution, 10 mg/mL of bovine serum albumin in 50 mM PBS (pH 7.4) was added to 0.2 M glucose, and 0.02% sodium azide was added to prevent bacterial growth. The reaction mixture (3.0 ml) was then mixed with various concentrations (0.5–1000 μg/mL) of the target compounds (1.0 ml) dissolved in DMSO. After incubating at 37 °C for 14 d, the fluorescence intensity of AGE was determined by a fluorospectrophotometer (PE, USA) with excitation and emission wavelengths at 350 nm and 420 nm, respectively. All experiments were run in triplicate. Aminoguanidine hydrochloride was used as a reference compound. The inhibition rate of AGEs formation and the IC50 value of each sample were calculated according to the formula. Inhibition rate %={[(AC−AB)−(AS−ASB)]/(AC−AB)}×100% where AC is the absorbance of control group(1.0 ml glucose +1.0 ml bovine serum albumin +1.0 ml sodium azide +1.0 ml DMSO); AB is the absorbance of blank group(1.0 ml PBS +1.0 ml bovine serum albumin +1.0 ml sodium azide +1.0 ml DMSO); AS is the absorbance of sample group (1.0 ml glucose +1.0 ml bovine serum albumin +1.0 ml sodium azide +1.0 ml target compound solution or Aminoguanidine hydrochloride solution); ASB is the absorbance of sample blank group (1.0 ml PBS +1.0 ml bovine serum albumin +1.0 ml sodium azide +1.0 ml target compound solution or Aminoguanidine hydrochloride solution).
Work on O=c1oc2c(O)cccc2cc1-c1ccc(Br)cc1 [Compound 45, 8-Hydroxy-3-(4-brominephenyl)-coumarin] yielded an IC50 of over 1000 µM. For O=c1oc2c(O)c(O)ccc2cc1-c1ccc(Br)cc1 [Compound 47, 7,8-Dihydroxy-3-(4-brominephenyl)-coumarin], the IC50 was 299 ± 40.1 µM. In the case of O=c1oc2cc(O)cc(O)c2cc1-c1ccc(Br)cc1 [Compound 46, 5,7-Dihydroxy-3-(4-brominephenyl)-coumarin], the IC50 is reported as 47.75 ± 0.15 µM.

System: STZ-diabetic mice
Assay: Acute hypoglycemic assay in STZ-diabetic mice
Format: in vivo
Conditions: STZ-diabetics mice, 10 mg/kg of bw per os, 0h
Protocol: Type II diabetes mellitus was induced in mice by a single intraperitoneal injection of freshly prepared STZ (Sigma Aldrich) dissolved in 0.1M citrate buffer, pH 4.5, in a volume of 110 mg/kg of bw. After 7 days of STZ administration, blood glucose levels of each mouse were determined. Mice with blood glucose levels higher than 11 mM were considered diabetic and were included in the study.
(§1) STZ-induced diabetic mice and normal mice were placed in single cages with wire-net floors and deprived of food for 12 h before experimentation but allowed free access to tap water throughout. The compounds (at the doses of 10, 30, and 100 mg/kg of bw) were suspended in 0.05% Tween-80 in saline solution. Glibenclamide (10 mg/kg of bw) was suspended in the same vehicle. The target compounds were freshly prepared immediately before experimentation and administered by the intragastrical route at the doses of 10 ml/kg of bw. Control mice received only the vehicle (0.05% Tween-80 in saline solution) by the same route. Blood glucose levels were measured at 0, 1.5, 3, 5, 7, and 9 h after drugs administration.
COc1ccc(Cl)cc1C(=O)NCCc1ccc(S(=O)(=O)NC(=O)NC2CCCCC2)cc1 [Glibenclamide, reference compound] gave a Blood glucose concentration of 16.9 ± 4.3 mM.

Same assay, conditions: STZ-diabetics mice, 10 mg/kg of bw per os, 1.5h
For COc1ccc(Cl)cc1C(=O)NCCc1ccc(S(=O)(=O)NC(=O)NC2CCCCC2)cc1 [Glibenclamide, reference compound], the “% Variation of glycemia” value was “(−55.28) %” and the Blood glucose concentration was 7.2 ± 4.0 mM.

Same assay, conditions: STZ-diabetics mice, 10 mg/kg of bw per os, 3h
For COc1ccc(Cl)cc1C(=O)NCCc1ccc(S(=O)(=O)NC(=O)NC2CCCCC2)cc1 [Glibenclamide, reference compound], the “% Variation of glycemia” value was “(−57.14) %” and the Blood glucose concentration was 6.9 ± 1.6 mM.

Same assay, conditions: STZ-diabetics mice, 10 mg/kg of bw per os, 5h
With COc1ccc(Cl)cc1C(=O)NCCc1ccc(S(=O)(=O)NC(=O)NC2CCCCC2)cc1 [Glibenclamide, reference compound] the “% Variation of glycemia” value was “(−55.90) %” and the Blood glucose concentration was 6.7 ± 2.5 mM.

Same assay, conditions: STZ-diabetics mice, 10 mg/kg of bw per os, 7h
For COc1ccc(Cl)cc1C(=O)NCCc1ccc(S(=O)(=O)NC(=O)NC2CCCCC2)cc1 [Glibenclamide, reference compound], the “% Variation of glycemia” value was “(−59.63) %” and the Blood glucose concentration was 6.5 ± 2.2 mM.

Same assay, conditions: STZ-diabetics mice, 10 mg/kg of bw per os, 9h
For COc1ccc(Cl)cc1C(=O)NCCc1ccc(S(=O)(=O)NC(=O)NC2CCCCC2)cc1 [Glibenclamide, reference compound], the “% Variation of glycemia” value was “(−70.81) %” and the Blood glucose concentration was 4.9 ± 2.5 mM.

Same assay, conditions: STZ-induced diabetic mice, 10 mg/kg of bw
With COc1ccc(Cl)cc1C(=O)NCCc1ccc(S(=O)(=O)NC(=O)NC2CCCCC2)cc1 [Glibenclamide, reference compound] the “time of maximum hypoglycemic effect” value was 9 h.

System: normal mice
Assay: Acute hypoglycemic assay in normal mice
Format: in vivo
Conditions: 10 mg/kg of bw per os, 0h
Protocol: as §1
COc1ccc(Cl)cc1C(=O)NCCc1ccc(S(=O)(=O)NC(=O)NC2CCCCC2)cc1 [Glibenclamide, reference compound] gave a Blood glucose concentration of 9.8 ± 1.5 mM.

Same assay, conditions: 10 mg/kg of bw per os, 1.5h
With COc1ccc(Cl)cc1C(=O)NCCc1ccc(S(=O)(=O)NC(=O)NC2CCCCC2)cc1 [Glibenclamide, reference compound] the “% Variation of glycemia” value was “(−34.58) %” and the Blood glucose concentration was 6.4 ± 1.4 mM.

Same assay, conditions: 10 mg/kg of bw per os, 3h
For COc1ccc(Cl)cc1C(=O)NCCc1ccc(S(=O)(=O)NC(=O)NC2CCCCC2)cc1 [Glibenclamide, reference compound], the “% Variation of glycemia” value was “(−41.36) %” and the Blood glucose concentration was 5.8 ± 0.8 mM.

Same assay, conditions: 10 mg/kg of bw per os, 5h
With COc1ccc(Cl)cc1C(=O)NCCc1ccc(S(=O)(=O)NC(=O)NC2CCCCC2)cc1 [Glibenclamide, reference compound] the “% Variation of glycemia” value was “(−49.15) %” and the Blood glucose concentration was 5.0 ± 1.4 mM.

Same assay, conditions: 10 mg/kg of bw per os, 7h
In the case of COc1ccc(Cl)cc1C(=O)NCCc1ccc(S(=O)(=O)NC(=O)NC2CCCCC2)cc1 [Glibenclamide, reference compound], the “% Variation of glycemia” value is reported as “(−56.61) %” and the Blood glucose concentration is reported as 4.3 ± 0.6 mM.

Same assay, conditions: 10 mg/kg of bw per os, 9h
With COc1ccc(Cl)cc1C(=O)NCCc1ccc(S(=O)(=O)NC(=O)NC2CCCCC2)cc1 [Glibenclamide, reference compound] the “% Variation of glycemia” value was “(−58.31) %” and the Blood glucose concentration was 4.1 ± 0.7 mM.
